In US20220062296A1, “COMBINATIONS OF GABAA ALPHA 5 AGONISTS AND SV2A INHIBITORS AND METHODS OF USING IN THE TREATMENT OF COGNITIVE IMPAIRMENT” (AGENEBIO, INC., priority 2020, published 2022):

Legend:
DG/CA3 of aMCI subjects = assay: fMRI activity in DG/CA3 during explicit 3-alternative forced choice task; type: in vivo, human; conditions: for DG/CA3 hyperactivity: two weeks
somatostatin in DG hilus = assay: Somatostatin immunohistochemistry, SOM-immunoreactive neurons in DG hilus; type: in vivo, rat; conditions: 10 mg/kg/day, four weeks, osmotic mini-pumps; AI-LEV vs AI-VEH p<0.01
Text: Tissue was labeled with anti-SOM antiserum (Santa Cruz Biotechnology; cat. no. SC7819-P) using an established immunoperoxidase protocol and tissue sections were processed concurrently to minimize inter-replication variability (Haberman et al., 2009). The anti-SOM antiserum can detect somatostatin. Briefly, sections were washed in 0.1M phosphate-buffered saline (PBS) to remove cryoprotectant, and endogenous peroxidases were quenched in 0.3% H202 in PBS. After additional PBS washes, sections were blocked in 5% normal horse serum in PBS with 0.3% Triton. Sections were then incubated with primary antibody at a dilution of 1:1600 in PBS containing 0.15% Triton and 3% normal serum for 72 hours at 4° C. with agitation. […] The secondary antibody was detected with avidin-biotin complex (ABC Elite; Vector Laboratories Inc., Burlingame, Calif.) and the avidin-biotin complex was visualized with nickel-enhanced diaminobenzadine (Vector Laboratories Inc., Burlingame, Calif.). […]
Interneuron quantification was performed using a Zeiss Axioplan 2 microscope equipped with a motorized stage. […] Neuron counts were analyzed as the total number of hilar interneurons per hippocampal section for each rat.

aged-impaired (AI) rats = assay: Radial Arm Maze (RAM) task with one-hour delay, levetiracetam; type: in vivo, rat; conditions: for effective in reducing the number of errors in the radial arm maze: levetiracetam on its own
Experimental: The effects of levetiracetam on the spatial memory retention of aged-impaired (AI) rats were assessed in a Radial Arm Maze (RAM) behavioral task using vehicle control and five different dosage levels of levetiracetam (1.25 mg/kg/day, 2.5 mg/kg/day, 5 mg/kg/day, 10 mg/kg/day and 20 mg/kg/day). RAM behavioral tasks were performed on ten AI rats. All six treatment conditions were tested on all ten rats, as described above for the MWM test. The RAM apparatus used consisted of eight equidistantly spaced arms. An elevated maze arm (7 cm width×75 cm length) projected from each facet of an octagonal center platform (30 cm diameter, 51.5 cm height). […] A food well (4 cm diameter, 2 cm deep) was located at the distal end of each arm. Froot Loops™ (Kellogg Company) were used as rewards. […] Numerous extra maze cues surrounding the apparatus were also provided. The AI rats were initially subjected to a pre-training test (Chappell et al. Neuropharmacology 37: 481-487, 1998). […] In the habituation phase, rats were familiarized to the maze for an 8-minute session on four consecutive days. In each of these sessions food rewards were scattered on the RAM, initially on the center platform and arms and then progressively confined to the arms. After this habituation phase, a standard training protocol was used, in which a food pellet was located at the end of each arm. Rats received one trial each day for 18 days. Each daily trial terminated when all eight food pellets had been obtained or when either 16 choices were made or 15 minutes had elapsed. After completion of this training phase, a second training phase was carried out in which the memory demand was increased by imposing a brief delay during the trial. At the beginning of each trial, three arms of the eight-arm maze were blocked. Rats were allowed to obtain food on the five arms to which access was permitted during this initial ‘information phase’ of the trial. Rats were then removed from the maze for 60 seconds, during which time the barriers on the maze were removed, thus allowing access to all eight arms. Rats were then placed back onto the center platform and allowed to obtain the remaining food rewards during this ‘retention test’ phase of the trial. The identity and configuration of the blocked arms varied across trials. The number of “errors” the AI rats made during the retention test phase was tracked. An error occurred in the trial if the rats entered an arm from which food had already been retrieved in the pre-delay component of the trial, or if it re-visited an arm in the post-delay session that had already been visited. After completion of the pre-training test, rats were subjected to trials with more extended delay intervals, i.e., a one-hour delay, between the information phase (presentation with some blocked arms) and the retention test (presentation of all arms). During the delay interval, rats remained off to the side of the maze in the testing room, on carts in their individual home cages. […] Injections were given every other day with intervening washout days. Each AI rat was treated with all six conditions within 23 days of testing. To counterbalance any potential bias, drug effect was assessed using ascending-descending dose series, i.e., the dose series was given first in an ascending order and then repeated in a descending order. Therefore, each dose had two determinations. Parametric statistics (paired t-tests) was used to compare the retention test performance of the AI rats in the one-hour delay version of the RAM task in the context of different doses of levetiracetam and vehicle control (see FIG. 3).

Question: What does the source list for CC[C@@H](C(N)=O)N1CCCC1=O [levetiracetam, (2S)-2-(2-oxopyrrolidin-1-yl)butanamide]?
Answer: DG/CA3 hyperactivity (DG/CA3 of aMCI subjects; levetiracetam 62.5 mg BID cohort): does not significantly reduce; DG/CA3 activity during lure stimuli correctly identified as similar (DG/CA3 of aMCI subjects; levetiracetam 125 mg twice a day for two weeks, vs placebo, p=0.037): reduces DG/CA3 hyper-activity; DG/CA3 hyperactivity (DG/CA3 of aMCI subjects; levetiracetam 250 mg BID cohort): does not significantly reduce; levels of somatostatin in DG hilus (SOM-immunoreactive hilar neurons) (somatostatin in DG hilus): restores the levels of somatostatin; effective doses of levetiracetam in the animal model (aged-impaired (AI) rats; AI rats): 5 to 10 mg/kg; average no. of errors ± standard error of the mean (SEM) (aged-impaired (AI) rats; levetiracetam 5 mg/kg/day i.p., one-hour delay, p=0.057 vs vehicle): 0.75±0.32; average no. of errors ± SEM (aged-impaired (AI) rats; levetiracetam 10 mg/kg/day i.p., one-hour delay, p=0.042 vs vehicle): 0.80±0.27; performance of AI rats in the radial maze task (aged-impaired (AI) rats; levetiracetam 20 mg/kg): fails to improve the performance; effective in reducing the number of errors in the radial arm maze (aged-impaired (AI) rats; 1.25 mg/kg): not at 1.25 mg/kg or 2.5 mg/kg; effective in reducing the number of errors in the radial arm maze (aged-impaired (AI) rats; 2.5 mg/kg): not at 1.25 mg/kg or 2.5 mg/kg
